Measured values published in patent US20190085024A1, “Alpha-Ketoamide Inhibitors Of Cysteine Proteases” (Phelix Therapeutics, priority 2017, published 2019).

Legend:
Cathepsin L = Cathepsin L (Homo sapiens, UniProt P07711); assay: Cathepsin L enzyme assay; format: biochemical; settings: Ki by Morrison equation; pH 5.5, substrate Z-Phe-Arg-Amc; read-out: Cat L
Description: Two wells contained DMSO only for controls.
Velocity was converted to μM/sec.

Calpain = Calpain enzyme assay; format: biochemical; settings: Ki by Morrison equation; pH 7.5, 5 mM CaCl2

Chain of Cathepsin L (P07711 114-333, species assumed): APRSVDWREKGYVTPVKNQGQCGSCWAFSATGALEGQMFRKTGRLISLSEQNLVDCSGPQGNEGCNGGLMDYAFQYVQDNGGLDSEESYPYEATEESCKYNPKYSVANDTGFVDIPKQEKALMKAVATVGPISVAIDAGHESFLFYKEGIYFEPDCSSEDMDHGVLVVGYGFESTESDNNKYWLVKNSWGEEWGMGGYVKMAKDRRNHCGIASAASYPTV

Compound	Ki (Cathepsin L) [nM]	Ki (Calpain) [nM]
CCC(C)C(NC(=O)C(CC(C)C)NC(=O)OCc1ccccc1)C(=O)C(=O)NC(CC#N)C(=O)NC(Cc1ccc2ccccc2c1)C(N)=O (stereo not shown) [PHELIX336, benzyl (1-((1-((1-((1-amino-3-(naphthalen-2-yl)-1-oxopropan-2-yl)amino)-3-cyano-1-oxopropan-2-yl)amino)-4-methyl-1,2-dioxohexan-3-yl)amino)-4-methyl-1-oxopentan-2-yl)carbamate]	4.04	33.6
CCC(C)C(NC(=O)C(CC(C)C)NC(=O)Cc1cncnc1)C(=O)C(=O)NCC(=O)NC(Cc1ccc2ccccc2c1)C(N)=O (stereo not shown) [PHELIX365, N-(2-((1-amino-3-(naphthalen-2-yl)-1-oxopropan-2-yl)amino)-2-oxoethyl)-4-methyl-3-(4-methyl-2-(2-(pyrimidin-5-yl)acetamido)pentanamido)-2-oxohexanamide]	17.9	6.21
CCC(C)C(NC(=O)C(CC(C)C)NC(=O)OCc1ccccc1)C(=O)C(=O)NC(CCCNC(=N)N)C(=O)NC(Cc1ccc2ccccc2c1)C(N)=O (stereo not shown) [PHELIX329, benzyl (1-((1-((1-((1-amino-3-(naphthalen-2-yl)-1-oxopropan-2-yl)amino)-5-guanidino-1-oxopentan-2-yl)amino)-4-methyl-1,2-dioxohexan-3-yl)amino)-4-methyl-1-oxopentan-2-yl)carbamate]	2.67	110
CCC(C)C(NC(=O)C(CC(C)C)NC(=O)OCc1ccccc1)C(=O)C(=O)NC(C)(C)C(=O)NC(Cc1ccc2ccccc2c1)C(N)=O (stereo not shown) [PHELIX296, benzyl (1-((1-((1-((1-amino-3-(naphthalen-2-yl)-1-oxopropan-2-yl)amino)-2-methyl-1-oxopropan-2-yl)amino)-4-methyl-1,2-dioxohexan-3-yl)amino)-4-methyl-1-oxopentan-2-yl)carbamate]	1720	1550
CCC(C)C(NC(=O)C(CC(C)C)NC(=O)OCc1ccccc1)C(=O)C(=O)N1CC(C(=O)NCc2cncnc2)C1 (stereo not shown) [PHELIX362, benzyl (4-methyl-1-((4-methyl-1,2-dioxo-1-(3-((pyrimidin-5-ylmethyl)carbamoyl)azetidin-1-yl)hexan-3-yl)amino)-1-oxopentan-2-yl)carbamate]	157	630
CCC(C)C(NC(=O)C(CC(C)C)NC(=O)OCc1ccccc1)C(=O)C(=O)NCC(=O)NC(Cc1ccc(F)cc1)C(N)=O (stereo not shown) [PHELIX349, benzyl (1-((1-((2-((1-amino-3-(4-fluorophenyl)-1-oxopropan-2-yl)amino)-2-oxoethyl)amino)-4-methyl-1,2-dioxohexan-3-yl)amino)-4-methyl-1-oxopentan-2-yl)carbamate]	2.11	2.27
CCC(C)C(NC(=O)C(CC(C)C)NC(=O)C(Cc1ccccc1)NC(=O)OCc1ccccc1)C(=O)C(=O)NC(CCCNC(=N)N)C(N)=O (stereo not shown) [PHELIX294, benzyl (1-amino-10-(sec-butyl)-6-carbamoyl-1-imino-13-isobutyl-8,9,12,15-tetraoxo-17-phenyl-2,7,11,14-tetraazaheptadecan-16-yl)carbamate]	2.53	0.49
CCC(C)C(NC(=O)C(CC(C)C)NC(=O)Cc1cccnc1)C(=O)C(=O)NCC(=O)N(C)C(Cc1ccccc1)C(N)=O (stereo not shown) [PHELIX351, N-(2-((1-amino-1-oxo-3-phenylpropan-2-yl)(methyl)amino)-2-oxoethyl)-4-methyl-3-(4-methyl-2-(2-(pyridin-3-yl)acetamido)pentanamido)-2-oxohexanamide]	0.45	0.3
CCC(C)C(NC(=O)C(CC(C)C)NC(=O)OCc1ccccc1)C(=O)C(=O)NC(Cc1cc2ccccc2[nH]1)C(N)=O (stereo not shown) [PHELIX343, benzyl (1-((1-((1-amino-3-(1H-indol-2-yl)-1-oxopropan-2-yl)amino)-4-methyl-1,2-dioxohexan-3-yl)amino)-4-methyl-1-oxopentan-2-yl)carbamate]	3.53	34.1
CCC(C)C(NC(=O)C(CC(C)C)NC(=O)OCc1ccccc1)C(=O)C(=O)NCC(=O)NC(Cc1cccc(F)c1)C(N)=O (stereo not shown) [PHELIX348, benzyl (1-((1-((2-((1-amino-3-(3-fluorophenyl)-1-oxopropan-2-yl)amino)-2-oxoethyl)amino)-4-methyl-1,2-dioxohexan-3-yl)amino)-4-methyl-1-oxopentan-2-yl)carbamate]	2.76	1.68
CCC(C)C(NC(=O)C(CC(C)C)NC(=O)Nc1ccccc1)C(=O)C(=O)NCC(=O)NC(Cc1ccc2ccccc2c1)C(N)=O (stereo not shown) [PHELIX335, N-(2-((1-amino-3-(naphthalen-2-yl)-1-oxopropan-2-yl)amino)-2-oxoethyl)-4-methyl-3-(4-methyl-2-(3-phenylureido)pentanamido)-2-oxohexanamide]	< 0.15	1.45
CCC(C)C(NC(=O)C(CC(C)C)NC(=O)OCc1ccccc1)C(=O)C(=O)NCC(=O)NC(Cc1cccnc1)C(N)=O (stereo not shown) [PHELIX356, benzyl (1-((1-((2-((1-amino-1-oxo-3-(pyridin-3-yl)propan-2-yl)amino)-2-oxoethyl)amino)-4-methyl-1,2-dioxohexan-3-yl)amino)-4-methyl-1-oxopentan-2-yl)carbamate]	11.2	9.17
CCC(C)C(NC(=O)C(Cc1c[nH]cn1)NC(=O)Cc1ccccc1)C(=O)C(=O)NCC(=O)NC(Cc1ccc2ccccc2c1)C(N)=O (stereo not shown) [PHELIX308, 3-(3-(1H-imidazol-4-yl)-2-(2-phenylacetamido)propanamido)-N-(2-((1-amino-3-(naphthalen-2-yl)-1-oxopropan-2-yl)amino)-2-oxoethyl)-4-methyl-2-oxohexanamide]	956	1510

More lines, now with the values ahead:

Ki (Cathepsin L) [nM]	Ki (Calpain) [nM]	Compound
1.57	1.71	CCC(C)C(NC(=O)C(CC(C)C)NC(=O)OCc1ccccc1)C(=O)C(=O)NCC(=O)NC(Cc1ccc(OC)cc1)C(N)=O (stereo not shown) [PHELIX355, benzyl (1-((1-((2-((1-amino-3-(4-methoxyphenyl)-1-oxopropan-2-yl)amino)-2-oxoethyl)amino)-4-methyl-1,2-dioxohexan-3-yl)amino)-4-methyl-1-oxopentan-2-yl)carbamate]
495	38.6	CCC(C)C(NC(=O)C(CCC(N)=O)NC(=O)Cc1ccccc1)C(=O)C(=O)NCC(=O)NC(Cc1ccc2ccccc2c1)C(N)=O (stereo not shown) [PHELIX320, N^1-(1-((2-((1-amino-3-(naphthalen-2-yl)-1-oxopropan-2-yl)amino)-2-oxoethyl)amino)-4-methyl-1,2-dioxohexan-3-yl)-2-(2-phenylacetamido)pentanediamide]
12.3	4.83	CCC(C)C(NC(=O)C(CC1CC1)NC(=O)OCc1ccccc1)C(=O)C(=O)NCC(=O)NC(Cc1ccc2ccccc2c1)C(N)=O (stereo not shown) [PHELIX299, benzyl (1-((1-((2-((1-amino-3-(naphthalen-2-yl)-1-oxopropan-2-yl)amino)-2-oxoethyl)amino)-4-methyl-1,2-dioxohexan-3-yl)amino)-3-cyclopropyl-1-oxopropan-2-yl)carbamate]
2.65	0.81	CCC(C)C(NC(=O)C(CC(C)C)NC(=O)Cc1cccnc1)C(=O)C(=O)NCC(=O)NC(Cc1ccc2ccccc2c1)C(N)=O (stereo not shown) [PHELIX312, N-(2-((1-amino-3-(naphthalen-2-yl)-1-oxopropan-2-yl)amino)-2-oxoethyl)-4-methyl-3-(4-methyl-2-(2-(pyridin-3-yl)acetamido)pentanamido)-2-oxohexanamide]
2.52	35.1	CCC(C)C(NC(=O)C(CC(C)C)NC(=O)OCc1ccccc1)C(=O)C(=O)NC(Cc1cnc[nH]1)C(=O)NC(Cc1ccc2ccccc2c1)C(N)=O (stereo not shown) [PHELIX328, benzyl (1-((1-((1-((1-amino-3-(naphthalen-2-yl)-1-oxopropan-2-yl)amino)-3-(1H-imidazol-5-yl)-1-oxopropan-2-yl)amino)-4-methyl-1,2-dioxohexan-3-yl)amino)-4-methyl-1-oxopentan-2-yl)carbamate]
3.88	17.1	CCC(C)C(NC(=O)C(CC(C)C)NC(=O)OCc1ccccc1)C(=O)C(=O)NC(CCCNC(N)=O)C(N)=O (stereo not shown) [PHELIX340, benzyl (1-((1-((1-amino-1-oxo-5-ureidopentan-2-yl)amino)-4-methyl-1,2-dioxohexan-3-yl)amino)-4-methyl-1-oxopentan-2-yl)carbamate]
3.28	1.71	CCC(C)C(NC(=O)C(CC(C)C)NC(=O)C(Cc1ccccc1)NC(=O)Cc1ccncc1)C(=O)C(=O)NC(CCCNC(=N)N)C(N)=O (stereo not shown) [PHELIX346, N-(1-amino-5-guanidino-1-oxopentan-2-yl)-4-methyl-3-(4-methyl-2-(3-phenyl-2-(2-(pyridin-4-yl)acetamido)propanamido)pentanamido)-2-oxohexanamide]
912	9450	CCC(C)C(C(=O)C(=O)NCC(=O)NC(Cc1ccc2ccccc2c1)C(N)=O)N(C)C(=O)C(CC(C)C)NC(=O)OCc1ccccc1 (stereo not shown) [PHELIX305, benzyl (1-((1-((2-((1-amino-3-(naphthalen-2-yl)-1-oxopropan-2-yl)amino)-2-oxoethyl)amino)-4-methyl-1,2-dioxohexan-3-yl)(methyl)amino)-4-methyl-1-oxopentan-2-yl)carbamate]
0.55	3.03	CCC(C)C(NC(=O)C(CC(C)C)NC(=O)Cc1ccncc1)C(=O)C(=O)NCC(=O)N(C)C(Cc1ccccc1)C(N)=O (stereo not shown) [PHELIX353, N-(2-((1-amino-1-oxo-3-phenylpropan-2-yl)(methyl)amino)-2-oxoethyl)-4-methyl-3-(4-methyl-2-(2-(pyridin-4-yl)acetamido)pentanamido)-2-oxohexanamide]
< 0.2	20.5	CCC(C)C(NC(=O)C(CC(C)C)NC(=O)OCc1ccccc1)C(=O)C(=O)NC(CCCNC(=N)N)C(=O)NC(Cc1ccc2ccccc2c1)C(N)=O (stereo not shown) [PHELIX289, benzyl (1-((1-((1-((1-amino-3-(naphthalen-2-yl)-1-oxopropan-2-yl)amino)-5-guanidino-1-oxopentan-2-yl)amino)-4-methyl-1,2-dioxohexan-3-yl)amino)-4-methyl-1-oxopentan-2-yl)carbamate]
